Data reported in patent US6572603B1, “Vitamin d solution holder and containers for transfusions” (Otsuka Pharmaceutical Factory, Inc., priority 1998, dated 2003).
Structures can show the parent of a compound that is named as a salt.

Columns and labels:
[1] = Vitamin contents in transfusion fluid containers of Examples 4 and 5 after autoclaving and 40° C. four-month storage, bioassay (vitamin B12, biotin) or HPLC (other vitamins); type: physicochemical
Description: In a holder produced from a three-layered film (the thickness of each layer: 10 μm) in which the outer and the inner layers are made of polyethylene and the intermediate layer is made of ethylene.tetracyclododecene copolymer (trade name: Apel, product of Mitsui Chemicals, Inc.), solution (C) (4 ml) was charged and the inlet was melt-sealed. In a two-compartment container, the prepared holder was attached to one of the compartments. […] The above-described transfusion fluid containers in Examples 4 and 5 were allowed to stand at 40° C. for four months after autoclaving. Thereafter, the contents of vitamins in the containers were measured through a bioassay according to Pharmacopoeia of Japan (for vitamin B12 and biotin) or through HPLC (for other vitamins). The content of each vitamin is represented by a percentage (%) of the initially incorporated amount.

[2] = Vitamin content of solution (C) in polyolefin holders after autoclaving and storage at 40° C. for four months, measured through HPLC (Example 3); type: physicochemical
Description: Solution (C) (4 ml) prepared in Example 1 was charged into each of holders made of the materials shown in Table 3, to thereby obtain a holder which contains a solution of vitamin D3. Each of these holders containing a solution of vitamin D3 was subjected to autoclaving and wrapped in a nylon multi-layered-film bag together with a deoxidizing agent (trade name: Ageless, product of Mitsubishi Gas Chem. Co., Inc.). The thus-wrapped holders were allowed to stand at 40° C. for four months. Thereafter, the content of each vitamin in each holder was measured through HPLC. The content of each vitamin is represented by a percentage (%) of the initially incorporated amount.

[3] = Example 4 transfusion fluid container, 40° C., 4 months
[4] = Example 4 transfusion fluid container, immediately after sterilization
[5] = Example 5 transfusion fluid container, 40° C., 4 months
[6] = Example 5 transfusion fluid container, immediately after sterilization
[7] = holder No. 1, polyethylene, 30 μm, resin 7.4 cm^3 per μmol vitamin D, 40° C., 4 months
[8] = holder No. 1, polyethylene, 30 μm, resin 7.4 cm^3 per μmol vitamin D, after sterilization
[9] = holder No. 2, polyethylene, 100 μm, resin 18.5 cm^3 per μmol vitamin D, 40° C., 4 months
[10] = holder No. 2, polyethylene, 100 μm, resin 18.5 cm^3 per μmol vitamin D, after sterilization
[11] = holder No. 3, polypropylene, 30 μm, resin 7.4 cm^3 per μmol vitamin D, 40° C., 4 months
[12] = holder No. 3, polypropylene, 30 μm, resin 7.4 cm^3 per μmol vitamin D, after sterilization
[13] = holder No. 4, polyethylene, 250 μm, resin 123.2 cm^3 per μmol vitamin D, 40° C., 4 months
[14] = holder No. 4, polyethylene, 250 μm, resin 123.2 cm^3 per μmol vitamin D, after sterilization
[15] = holder No. 5, polypropylene, 250 μm, resin 123.2 cm^3 per μmol vitamin D, 40° C., 4 months
[16] = holder No. 5, polypropylene, 250 μm, resin 123.2 cm^3 per μmol vitamin D, after sterilization

O=C(O)CCCC[C@@H]1SC[C@@H]2NC(=O)N[C@@H]21 [Biotin, biotin]
Vitamin content, percentage (%) of the initially incorporated amount [1, 3]: 99.8%
Vitamin content, percentage (%) of the initially incorporated amount [1, 4]: 100.4%
Vitamin content, percentage (%) of the initially incorporated amount [1, 5]: 100.3%
Vitamin content, percentage (%) of the initially incorporated amount [1, 6]: 98.7%

Nc1nc2ncc(CNc3ccc(C(=O)N[C@@H](CCC(=O)O)C(=O)O)cc3)nc2c(=O)[nH]1 [Folic acid, folic acid]
Vitamin content, percentage (%) of the initially incorporated amount [1, 3]: 97.5%
Vitamin content, percentage (%) of the initially incorporated amount [1, 4]: 97.8%
Vitamin content, percentage (%) of the initially incorporated amount [1, 5]: 99.1%
Vitamin content, percentage (%) of the initially incorporated amount [1, 6]: 98.3%

NC(=O)c1cccnc1 [Nicotinamide, nicotinamide]
Vitamin content, percentage (%) of the initially incorporated amount [1, 3]: 97.8%
Vitamin content, percentage (%) of the initially incorporated amount [1, 4]: 98.6%
Vitamin content, percentage (%) of the initially incorporated amount [1, 5]: 98.5%
Vitamin content, percentage (%) of the initially incorporated amount [1, 6]: 98.2%

CC(C)(CO)[C@@H](O)C(=O)NCCCO [Panthenol, panthenol]
Vitamin content, percentage (%) of the initially incorporated amount [1, 3]: 96.9%
Vitamin content, percentage (%) of the initially incorporated amount [1, 4]: 97.4%
Vitamin content, percentage (%) of the initially incorporated amount [1, 5]: 97.6%
Vitamin content, percentage (%) of the initially incorporated amount [1, 6]: 98.5%

Cc1ncc(CO)c(CO)c1O.Cl [Pyridoxine hydrochloride (B6), pyridoxine hydrochloride]
Vitamin content, percentage (%) of the initially incorporated amount [1, 3]: 100.1%
Vitamin content, percentage (%) of the initially incorporated amount [1, 4]: 100.5%
Vitamin content, percentage (%) of the initially incorporated amount [1, 5]: 99.8%
Vitamin content, percentage (%) of the initially incorporated amount [1, 6]: 99.7%

Cc1ncc(C[n+]2csc(CCO)c2C)c(N)n1 [Thiamin hydrochloride (B1), thiamin hydrochloride]
Vitamin content, percentage (%) of the initially incorporated amount [1, 3]: 87.4%
Vitamin content, percentage (%) of the initially incorporated amount [1, 4]: 93.8%
Vitamin content, percentage (%) of the initially incorporated amount [1, 5]: 86.6%
Vitamin content, percentage (%) of the initially incorporated amount [1, 6]: 93.5%

CCCCCCCCCCCCCCCC(=O)OC/C=C(C)/C=C/C=C(C)/C=C/C1=C(C)CCCC1(C)C [Vitamin A, retinol palmitate]
Vitamin content (%) of initially incorporated amount [2, 7]: 80.7%
Vitamin content (%) of initially incorporated amount [2, 8]: 91.1%
Vitamin content (%) of initially incorporated amount [2, 9]: 81.3%
Vitamin content (%) of initially incorporated amount [2, 10]: 90.9%
Vitamin content (%) of initially incorporated amount [2, 11]: 81.2%
Vitamin content (%) of initially incorporated amount [2, 12]: 90.7%
Vitamin content (%) of initially incorporated amount [2, 13]: 78.3%
Vitamin content (%) of initially incorporated amount [2, 14]: 89.1%
Vitamin content (%) of initially incorporated amount [2, 15]: 77.8%
Vitamin content (%) of initially incorporated amount [2, 16]: 88.9%
Vitamin content, percentage (%) of the initially incorporated amount [1, 3]: 84.5%
Vitamin content, percentage (%) of the initially incorporated amount [1, 4]: 87.2%
Vitamin content, percentage (%) of the initially incorporated amount [1, 5]: 83.9%
Vitamin content, percentage (%) of the initially incorporated amount [1, 6]: 86.5%

Cc1cc2nc3c(=O)[nH]c(=O)nc-3n(C[C@H](O)[C@H](O)[C@H](O)COP(=O)(O)O)c2cc1C [Vitamin B2, sodium riboflavin phosphate]
Vitamin content (%) of initially incorporated amount [2, 7]: 90.7%
Vitamin content (%) of initially incorporated amount [2, 8]: 94.8%
Vitamin content (%) of initially incorporated amount [2, 9]: 91.2%
Vitamin content (%) of initially incorporated amount [2, 10]: 96.3%
Vitamin content (%) of initially incorporated amount [2, 11]: 91.0%
Vitamin content (%) of initially incorporated amount [2, 12]: 95.4%
Vitamin content (%) of initially incorporated amount [2, 13]: 90.9%
Vitamin content (%) of initially incorporated amount [2, 14]: 94.6%
Vitamin content (%) of initially incorporated amount [2, 15]: 91.2%
Vitamin content (%) of initially incorporated amount [2, 16]: 95.3%
Vitamin content, percentage (%) of the initially incorporated amount [1, 3]: 83.2%
Vitamin content, percentage (%) of the initially incorporated amount [1, 4]: 86.5%
Vitamin content, percentage (%) of the initially incorporated amount [1, 5]: 84.3%
Vitamin content, percentage (%) of the initially incorporated amount [1, 6]: 85.9%

O=C1O[C@H]([C@@H](O)CO)C(O)=C1O [Vitamin C, ascorbic acid]
Vitamin content (%) of initially incorporated amount [2, 7]: 94.3%
Vitamin content (%) of initially incorporated amount [2, 8]: 96.2%
Vitamin content (%) of initially incorporated amount [2, 9]: 95.4%
Vitamin content (%) of initially incorporated amount [2, 10]: 97.1%
Vitamin content (%) of initially incorporated amount [2, 11]: 94.2%
Vitamin content (%) of initially incorporated amount [2, 12]: 97.3%
Vitamin content (%) of initially incorporated amount [2, 13]: 94.8%
Vitamin content (%) of initially incorporated amount [2, 14]: 97.5%
Vitamin content (%) of initially incorporated amount [2, 15]: 93.1%
Vitamin content (%) of initially incorporated amount [2, 16]: 96.8%
Vitamin content, percentage (%) of the initially incorporated amount [1, 3]: 98.3%
Vitamin content, percentage (%) of the initially incorporated amount [1, 4]: 98.7%
Vitamin content, percentage (%) of the initially incorporated amount [1, 5]: 97.5%
Vitamin content, percentage (%) of the initially incorporated amount [1, 6]: 97.8%

CC(=O)Oc1c(C)c(C)c2c(c1C)CCC(C)(CCC[C@H](C)CCC[C@H](C)CCCC(C)C)O2 (some centres unmarked) [Vitamin E, tocopherol acetate]
Vitamin content (%) of initially incorporated amount [2, 7]: 98.3%
Vitamin content (%) of initially incorporated amount [2, 8]: 98.7%
Vitamin content (%) of initially incorporated amount [2, 9]: 99.7%
Vitamin content (%) of initially incorporated amount [2, 10]: 99.4%
Vitamin content (%) of initially incorporated amount [2, 11]: 97.3%
Vitamin content (%) of initially incorporated amount [2, 12]: 97.6%
Vitamin content (%) of initially incorporated amount [2, 13]: 95.6%
Vitamin content (%) of initially incorporated amount [2, 14]: 98.2%
Vitamin content (%) of initially incorporated amount [2, 15]: 95.3%
Vitamin content (%) of initially incorporated amount [2, 16]: 97.6%
Vitamin content, percentage (%) of the initially incorporated amount [1, 3]: 95.1%
Vitamin content, percentage (%) of the initially incorporated amount [1, 4]: 94.9%
Vitamin content, percentage (%) of the initially incorporated amount [1, 5]: 94.8%
Vitamin content, percentage (%) of the initially incorporated amount [1, 6]: 95.3%

CC1=C(C/C=C(\C)CCC[C@H](C)CCC[C@H](C)CCCC(C)C)C(=O)c2ccccc2C1=O [Vitamin K, phytonadione]
Vitamin content (%) of initially incorporated amount [2, 7]: 91.3%
Vitamin content (%) of initially incorporated amount [2, 8]: 95.4%
Vitamin content (%) of initially incorporated amount [2, 9]: 90.8%
Vitamin content (%) of initially incorporated amount [2, 10]: 94.7%
Vitamin content (%) of initially incorporated amount [2, 11]: 91.3%
Vitamin content (%) of initially incorporated amount [2, 12]: 96.1%
Vitamin content (%) of initially incorporated amount [2, 13]: 89.1%
Vitamin content (%) of initially incorporated amount [2, 14]: 94.3%
Vitamin content (%) of initially incorporated amount [2, 15]: 88.7%
Vitamin content (%) of initially incorporated amount [2, 16]: 93.9%
Vitamin content, percentage (%) of the initially incorporated amount [1, 3]: 95.3%
Vitamin content, percentage (%) of the initially incorporated amount [1, 4]: 96.2%
Vitamin content, percentage (%) of the initially incorporated amount [1, 5]: 95.4%
Vitamin content, percentage (%) of the initially incorporated amount [1, 6]: 95.8%

cyanocobalamin [Cyanocobalamin (B12)]
Vitamin content, percentage (%) of the initially incorporated amount [1, 3]: 89.2%
Vitamin content, percentage (%) of the initially incorporated amount [1, 4]: 91.3%
Vitamin content, percentage (%) of the initially incorporated amount [1, 5]: 90.5%
Vitamin content, percentage (%) of the initially incorporated amount [1, 6]: 96.5%
